# Positions of bridges follow the written chain, without caps; N, C: chain ends. Non-standard residues stand in square brackets, D forms with d. Residues, ends and D or L forms follow the SMILES beside them.
# Experiments:
# [1] = molecular target: USP22/ATXN7L3/ENY2/ATXN7 (hDUBm) (Homo sapiens, UniProt Q9UPT9); experiment: biochemical
# Method: Cleavage rates of 5 μM Ub-AMC were assayed for 75 nM USP22/ATXN7L3/ENY2/ATXN7 (hDUBm), 100 nM USP27x/ATXN7L3/ENY2, or 1000 nM USP51/ATXN7L3/ENY2. Rates were normalized to the uninhibited reaction in each case to determine the fraction of apparent activity.
# DUB specificity assays Ubiquitin-rhodamine(110)-glycine cleavage rates were measured for all DUBs available in the DUBprofiler™ panel with two independent replicates (44 in total; Ubiquigent). […] USP22 was not included in the panel, and is not represented in FIG. 12A. […] Initial cleavage rates of each complex were measured on a fixed concentration of 5 μM Ub-AMC.
# Heterotrimeric complexes containing USP27x and USP51 were purified, respectively, in complex with ENY2 and ATXN7L3. The activity of these complexes on Ub-AMC was compared to that of the human DUBm, which contains USP22, ENY2, ATXN7L3, and a fourth subunit, ATXN7, that anchors the DUBm to the rest of the SAGA complex.
# USP27x = molecular target: T1, USP27x (Homo sapiens, UniProt A6NNY8); experiment: DUBprofiler panel, USP27x alone; type: biochemical; details: 1 μM hD1, USP27x alone without other subunits
# T1 construct: purchased Ubiquigent (DUBprofiler panel)
# T1 sequence (A6NNY8 1-438): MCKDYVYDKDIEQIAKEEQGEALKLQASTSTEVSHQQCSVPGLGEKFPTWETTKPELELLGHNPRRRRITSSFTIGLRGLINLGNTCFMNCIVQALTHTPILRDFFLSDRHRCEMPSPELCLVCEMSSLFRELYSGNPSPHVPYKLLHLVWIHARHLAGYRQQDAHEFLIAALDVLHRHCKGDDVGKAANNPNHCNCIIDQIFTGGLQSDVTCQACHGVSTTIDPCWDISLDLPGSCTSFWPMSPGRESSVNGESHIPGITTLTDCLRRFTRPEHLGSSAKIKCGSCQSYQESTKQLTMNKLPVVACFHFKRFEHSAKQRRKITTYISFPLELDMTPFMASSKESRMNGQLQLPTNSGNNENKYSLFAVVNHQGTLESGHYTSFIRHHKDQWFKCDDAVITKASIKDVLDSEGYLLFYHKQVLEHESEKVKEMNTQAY
# Method: The human genome encodes about 80 active DUBs, 55 of which belong to the same USP structural family as USP22, thus presenting a challenge to the development of specific DUB inhibitors. […] The activity of each DUB was tested in the presence of a single concentration of inhibitor and compared with enzyme activity in the absence of compound. […] In this screen, however, USP27x alone was tested in the absence of other subunits.
# USP30 = molecular target: T2, USP30 (Homo sapiens, UniProt Q70CQ3); experiment: End-point Ub-AMC cleavage by off-target DUB USP30; type: biochemical; details: 1 μM hD1, 200 nM USP30, 1 μM Ub-AMC
# T2 sequence (Q70CQ3 1-517): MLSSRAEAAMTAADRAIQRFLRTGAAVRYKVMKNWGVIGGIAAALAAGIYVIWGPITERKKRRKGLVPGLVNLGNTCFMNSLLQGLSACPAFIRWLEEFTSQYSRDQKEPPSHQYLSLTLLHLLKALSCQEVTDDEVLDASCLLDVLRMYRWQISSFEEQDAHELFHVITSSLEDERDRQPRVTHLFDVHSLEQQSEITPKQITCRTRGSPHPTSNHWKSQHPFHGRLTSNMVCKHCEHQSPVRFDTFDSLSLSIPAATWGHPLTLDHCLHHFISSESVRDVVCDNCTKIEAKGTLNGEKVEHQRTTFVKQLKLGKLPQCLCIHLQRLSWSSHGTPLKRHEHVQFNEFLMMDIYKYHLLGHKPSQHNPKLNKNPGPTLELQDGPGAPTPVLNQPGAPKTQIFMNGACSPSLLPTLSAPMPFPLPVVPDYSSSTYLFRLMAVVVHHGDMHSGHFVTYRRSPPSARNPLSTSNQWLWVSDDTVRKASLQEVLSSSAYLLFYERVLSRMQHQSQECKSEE
# Source text: USP7 and USP30 are USP DUBs and belong to the same structural family as USP22, while CYLD belongs to the structurally distinct ubiquitin C-terminal hydrolase (UCH) family of DUBs. […]
# Chain of USP22/ATXN7L3/ENY2/ATXN7 (hDUBm) (Q9UPT9 whole entry): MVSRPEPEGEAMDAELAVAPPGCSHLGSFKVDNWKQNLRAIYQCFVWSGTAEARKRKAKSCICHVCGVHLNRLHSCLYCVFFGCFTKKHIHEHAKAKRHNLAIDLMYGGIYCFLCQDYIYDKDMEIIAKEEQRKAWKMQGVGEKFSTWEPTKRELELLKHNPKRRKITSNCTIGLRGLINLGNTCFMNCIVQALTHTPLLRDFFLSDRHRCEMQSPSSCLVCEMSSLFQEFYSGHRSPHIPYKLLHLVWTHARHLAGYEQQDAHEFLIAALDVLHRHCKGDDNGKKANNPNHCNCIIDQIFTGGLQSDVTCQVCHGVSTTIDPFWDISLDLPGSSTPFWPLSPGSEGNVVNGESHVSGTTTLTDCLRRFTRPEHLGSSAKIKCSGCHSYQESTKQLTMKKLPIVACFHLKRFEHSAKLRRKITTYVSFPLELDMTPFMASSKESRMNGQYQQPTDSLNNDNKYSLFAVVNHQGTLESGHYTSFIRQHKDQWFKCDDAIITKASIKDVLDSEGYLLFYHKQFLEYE
# Chain of USP22/ATXN7L3/ENY2/ATXN7 (hDUBm) (O15265 3-151 partner limits assumed): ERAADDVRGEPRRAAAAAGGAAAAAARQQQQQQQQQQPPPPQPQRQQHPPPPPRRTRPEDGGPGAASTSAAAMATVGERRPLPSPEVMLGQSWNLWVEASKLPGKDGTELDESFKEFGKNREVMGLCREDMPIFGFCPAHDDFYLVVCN
# Chain of USP22/ATXN7L3/ENY2/ATXN7 (hDUBm) (Q14CW9 whole entry partner): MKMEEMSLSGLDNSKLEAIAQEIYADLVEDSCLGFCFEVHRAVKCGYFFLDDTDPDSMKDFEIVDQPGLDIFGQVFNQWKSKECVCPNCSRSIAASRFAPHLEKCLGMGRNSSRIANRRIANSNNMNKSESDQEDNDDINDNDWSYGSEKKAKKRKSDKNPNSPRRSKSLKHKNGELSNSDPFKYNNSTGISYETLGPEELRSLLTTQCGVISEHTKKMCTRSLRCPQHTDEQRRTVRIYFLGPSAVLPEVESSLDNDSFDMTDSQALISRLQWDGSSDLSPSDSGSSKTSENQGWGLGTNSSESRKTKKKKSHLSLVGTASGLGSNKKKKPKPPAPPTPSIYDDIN
# Chain of USP22/ATXN7L3/ENY2/ATXN7 (hDUBm) (Q9NPA8 whole entry partner): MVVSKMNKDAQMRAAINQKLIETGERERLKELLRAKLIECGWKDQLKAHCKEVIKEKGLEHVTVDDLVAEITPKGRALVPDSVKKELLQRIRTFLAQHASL
smiles,measurement,setting,value
CC[C@H](C)[C@@H]1NC(=O)[C@H](C)NC(=O)[C@@H](Cc2ccc(O)cc2)NC(=O)CSC[C@@H](C(N)=O)NC(=O)[C@H](CC(C)C)NC(=O)[C@H](CC(C)C)NC(=O)[C@H]([C@@H](C)O)NC(=O)[C@H]([C@@H](C)O)NC(=O)[C@H](CCCCN)NC(=O)CNC(=O)[C@H](CCCNC(=N)N)NC(=O)[C@H](Cc2ccc(O)cc2)NC(=O)[C@H](CO)NC1=O [hD1] ({CH2CO}-[dY]AISYRGKTTLLC-NH2; thioether N-13),IC50,[1],100 nM
same,reduction of USP27x activity,USP27x,~50%
same,effect on USP30 activity,USP30,~15%
